In one test the test system is Myzus persicae. Briefly: Myzus persicae test (drench application) on cabbage plants, with predatory bugs added. In kind it is in vivo. The following applies: flubendiamide alone, 1 mg of ai/l soil, cabbage plants (Brassica oleracea). An excerpt: The expected action for a given combination of two active compounds can be calculated as follows, using the formula of S. R. Colby, Weeds 15 (1967), 20-22:
• X is the kill rate, expressed as % of the untreated control, when employing active compound A at an application rate of m g/ha, m mg of ai/plant or in a concentration of m ppm, • Y is the kill rate, expressed as % of the untreated control, when employing the beneficial species at an application rate of n animals or n units, and • E is the kill rate, expressed as % of the untreated control, when employing active compound
A and beneficial species B at an application rate of m ppm, m mg of ai/plant or g/ha and n animals or units,
If the actual insecticidal or acaricidal kill rate exceeds the calculated value, the kill of the combination is superadditive, i.e. a synergistic effect is present. In this case, the actually observed kill rate must exceed the value calculated using the above formula for the expected kill rate (E). […]
After the application, the predatory bugs (Macrolophus caliginosus) are added in a defined amount. After the desired period of time, the kill of the pest in % is determined 100% means that all of the aphids have been destroyed; 0% means that none of the aphids have been destroyed.
The kill rates determined are entered into Colby's formula (see above).

Another test deals with Plutella xylostella. Briefly: Plutella xylostella test (drench application on rock wool). Format: in vivo. The note with it: for Kill in % after 7^d: 1 mg of ai/plant, drench, cabbage plants. As to the method: To produce a suitable preparation of active compound, 1 part by weight of active compound is mixed with the stated amounts of solvent and emulsifier, and the concentrate is diluted with water to the desired concentration.
Cabbage plants (Brassica oleracea) are watered with an active compound preparation of the desired concentration and infected with larvae of the diamondback moth (Plutella xylostella).
After the desired period of time, the kill of the pest in % is determined 100% means that all caterpillars have been killed; 0% means that none of the caterpillars have been killed.

Each structure is given as a SMILES string.

For the compound `Cc1cc(C(F)(C(F)(F)F)C(F)(F)F)ccc1NC(=O)c1cccc(I)c1C(=O)NC(C)(C)CS(C)(=O)=O` [flubendiamide, 3-iodo-N′-(2-mesyl-1,1-dimethylethyl)-N-{4-[1,2,2,2-tetrafluoro-1-(trifluoromethyl)ethyl]-o-tolyl}phthalamide], the “Kill in % after 4^h” value in the test with Myzus persicae was determined as 45%. Besides, the systemic efficacy result with Plutella xylostella (applied to soil-less substrates) is listed as “surprisingly good systemic efficacy”. The “Kill in % after 7^d” value in the test with Plutella xylostella (on rock wool) stood at 97%; in the test with Plutella xylostella (on sandy loam (prior art)), 40%.
